Results on 14 compounds are retold here after US20240109885A1, “2,3-DIHYDRO-1H-PYRROLO[3,2-B]PYRIDINE DERIVATIVE, PREPARATION METHOD THEREFOR, AND APPLICATION THEREOF” (Abbisko Therapeutics Co., Ltd, priority 2020, published 2024).

Common to all, as to assay type: cell-based
One assay deals with A431 (EGFR-WT). Kind of assay: Cell proliferation assay (CellTiter-Glo), A431 cells. To be noted: Homo sapiens, A-431, 72 hrs, CTG assay, * = average of multiple measurements. As for the experimental part: I. Cell proliferation assay (i) Reagents and consumables • Fetal bovine serum (FBS) (GBICO, Cat #10099-141); • CellTiter-Glo® Luminescent Cell Viability Assay Kit (Promega, Cat #G7572); • Black transparent flat-bottomed 96-well plate (Corning®, Cat #3603).
• SpectraMax Multi-Label Microplate Detector MD, 2104-0010A; • CO2 incubator, Thermo Scientific 3100 Series; • Biosafety cabinet, Thermo Scientific, 1300 Series type A2; • Inverted microscope, Olympus, CKX41SF; • Siemens refrigerator KK25E76TI. (iii) Cell lines and culture conditions
(iv) Experimental procedures 1. Cell culture and seeding: • (1) Cells in the logarithmic growth phase were harvested, and counted using a platelet counter. Cell viability was detected by the trypan blue exclusion assay to ensure that the cell viability was above 90%. • (2) The cell concentration was adjusted to achieve the final density; and 90 μL of the cell suspension was added to the 96-well plate. • (3) The cells were incubated in the 96-well plate overnight at 37° C. in the presence of 5% CO2 with 95% humidity. 2. TO benchmark data: • (1) 10 μL of PBS was added to each well of the TO flat plate containing the cells. • (2) The CTG reagent was thawed, and the cell plate was equilibrated to room temperature for 30 min. • (3) An equal volume of CTG solution was added to each well. • (4) The cells were shaken for 5 min on an orbital shaker for lysis. • (5) The cell plate was left at room temperature for 20 min to stabilize luminescent signals. • (6) The values of TO luminescent signals were read. 3. Compound dilution and addition • (1) According to the compound information table, a corresponding volume of DMSO was added to the corresponding compound powder to prepare a 10 mM stock solution. • (2) Compound solutions diluted at 1000 fold and 3.16 fold were prepared. • (3) The compound solution diluted at 1000 fold was diluted at 100 fold with PBS, to prepare the compound solutions at 10 fold in 9 concentrations, with the maximum concentration of […]; and the compound solution was diluted at 3.16 fold. 10 μL of medicament solution was added to each well of the seeded 96-well plate. Three replicate wells were provided for each concentration of the compound, and the final concentration of DMSO was 0.1%. • (4) Cells were placed in the 96-well plate containing the medicament and subsequently cultured for 72 hrs at 37° C. in the presence of 5% CO2 with 95% humidity, and then, CTG assay was conducted. 4. Reading of luminescent signals • (1) The CTG reagent was thawed, and the cell plate was equilibrated to room temperature for 30 min. • (2) An equal volume of CTG solution was added to each well. • (3) The cells were shaken for 5 min on an orbital shaker for lysis.
(4) The cell plate was left at room temperature for 20 min to stabilize the luminescent signals. • (5) Luminescent values were read. Data processing
The data were analyzed using software GraphPad Prism 7.0, and fitted by the nonlinear S-curve regression to obtain a dose-effect curve, based on which the IC50 value (unit: nM) was calculated, with the specific test results shown in Table 1.
Cell viability (%)=(Lum test medicament-Lum culture medium control)/(Lum cell control-Lum culture medium control)×100%.

The target of assay [1] is Ba/F3 EGFR-V769_D770insASV (Homo sapiens, UniProt P00533, DUP767-769, cells depend on it). Kind of assay: Cell proliferation assay (CellTiter-Glo), Ba/F3 EGFR-V769_D770insASV cells. To be noted: 72 hrs, CTG assay, * = average of multiple measurements, read-out: Ba/F3 EGFR-V769_D770insASV (nM), IC50 of cell proliferation. An outline of the steps: (§1)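 Cells seeded overnight, then treated in triplicate with 9 concentrations (3.16-fold dilutions; 0.1% DMSO final) for 72 h at 37 °C, 5% CO2. Viability by CellTiter-Glo luminescence, normalised to cell and medium controls; IC50 (nM) from nonlinear sigmoidal fit.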

Assay [2] deals with Ba/F3 EGFR-D770-N771ins_SVD (Homo sapiens, UniProt P00533, DUP768-770, cells depend on it). Kind of assay: Cell proliferation assay (CellTiter-Glo), Ba/F3 EGFR-D770-N771ins_SVD cells. To be noted: 72 hrs, CTG assay, * = average of multiple measurements, read-out: Ba/F3 EGFR-D770-N771ins_SVD (nM), IC50 of cell proliferation. A digest of the protocol:
as §1

Chain of Ba/F3 EGFR-D770-N771ins_SVD (P00533 with tags, fused parts or gaps DUP768-770): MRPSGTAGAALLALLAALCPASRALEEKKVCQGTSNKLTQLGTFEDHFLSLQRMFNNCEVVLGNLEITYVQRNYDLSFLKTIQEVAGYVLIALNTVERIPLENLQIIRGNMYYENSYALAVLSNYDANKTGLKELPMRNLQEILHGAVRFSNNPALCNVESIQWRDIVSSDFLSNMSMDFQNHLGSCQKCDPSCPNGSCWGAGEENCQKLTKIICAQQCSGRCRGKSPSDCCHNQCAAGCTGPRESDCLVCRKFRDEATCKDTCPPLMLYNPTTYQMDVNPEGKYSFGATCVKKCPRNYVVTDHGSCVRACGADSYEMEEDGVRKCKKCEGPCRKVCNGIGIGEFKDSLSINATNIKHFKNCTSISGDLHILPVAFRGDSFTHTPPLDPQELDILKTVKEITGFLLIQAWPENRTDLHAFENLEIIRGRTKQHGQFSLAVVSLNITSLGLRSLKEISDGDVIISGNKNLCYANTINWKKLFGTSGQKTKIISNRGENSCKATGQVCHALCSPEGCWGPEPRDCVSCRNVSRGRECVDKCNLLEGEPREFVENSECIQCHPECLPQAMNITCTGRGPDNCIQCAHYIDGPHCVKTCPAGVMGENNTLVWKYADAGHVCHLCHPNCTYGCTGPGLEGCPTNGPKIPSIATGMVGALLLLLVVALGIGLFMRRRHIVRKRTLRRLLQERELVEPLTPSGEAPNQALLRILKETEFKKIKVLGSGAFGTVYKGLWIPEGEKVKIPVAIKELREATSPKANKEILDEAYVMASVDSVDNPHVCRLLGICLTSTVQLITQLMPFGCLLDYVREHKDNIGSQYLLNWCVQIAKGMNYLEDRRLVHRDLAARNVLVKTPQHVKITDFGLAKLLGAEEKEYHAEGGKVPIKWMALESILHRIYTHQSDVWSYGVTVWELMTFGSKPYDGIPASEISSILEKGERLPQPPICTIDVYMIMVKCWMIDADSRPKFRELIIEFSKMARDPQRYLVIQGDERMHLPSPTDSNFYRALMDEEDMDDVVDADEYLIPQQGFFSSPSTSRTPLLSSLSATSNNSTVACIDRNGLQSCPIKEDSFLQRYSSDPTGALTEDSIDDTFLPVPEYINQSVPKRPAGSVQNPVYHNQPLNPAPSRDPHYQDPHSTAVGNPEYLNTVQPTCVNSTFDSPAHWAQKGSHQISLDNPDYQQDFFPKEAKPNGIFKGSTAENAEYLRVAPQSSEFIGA
Chain of Ba/F3 EGFR-V769_D770insASV (P00533 with tags, fused parts or gaps DUP767-769): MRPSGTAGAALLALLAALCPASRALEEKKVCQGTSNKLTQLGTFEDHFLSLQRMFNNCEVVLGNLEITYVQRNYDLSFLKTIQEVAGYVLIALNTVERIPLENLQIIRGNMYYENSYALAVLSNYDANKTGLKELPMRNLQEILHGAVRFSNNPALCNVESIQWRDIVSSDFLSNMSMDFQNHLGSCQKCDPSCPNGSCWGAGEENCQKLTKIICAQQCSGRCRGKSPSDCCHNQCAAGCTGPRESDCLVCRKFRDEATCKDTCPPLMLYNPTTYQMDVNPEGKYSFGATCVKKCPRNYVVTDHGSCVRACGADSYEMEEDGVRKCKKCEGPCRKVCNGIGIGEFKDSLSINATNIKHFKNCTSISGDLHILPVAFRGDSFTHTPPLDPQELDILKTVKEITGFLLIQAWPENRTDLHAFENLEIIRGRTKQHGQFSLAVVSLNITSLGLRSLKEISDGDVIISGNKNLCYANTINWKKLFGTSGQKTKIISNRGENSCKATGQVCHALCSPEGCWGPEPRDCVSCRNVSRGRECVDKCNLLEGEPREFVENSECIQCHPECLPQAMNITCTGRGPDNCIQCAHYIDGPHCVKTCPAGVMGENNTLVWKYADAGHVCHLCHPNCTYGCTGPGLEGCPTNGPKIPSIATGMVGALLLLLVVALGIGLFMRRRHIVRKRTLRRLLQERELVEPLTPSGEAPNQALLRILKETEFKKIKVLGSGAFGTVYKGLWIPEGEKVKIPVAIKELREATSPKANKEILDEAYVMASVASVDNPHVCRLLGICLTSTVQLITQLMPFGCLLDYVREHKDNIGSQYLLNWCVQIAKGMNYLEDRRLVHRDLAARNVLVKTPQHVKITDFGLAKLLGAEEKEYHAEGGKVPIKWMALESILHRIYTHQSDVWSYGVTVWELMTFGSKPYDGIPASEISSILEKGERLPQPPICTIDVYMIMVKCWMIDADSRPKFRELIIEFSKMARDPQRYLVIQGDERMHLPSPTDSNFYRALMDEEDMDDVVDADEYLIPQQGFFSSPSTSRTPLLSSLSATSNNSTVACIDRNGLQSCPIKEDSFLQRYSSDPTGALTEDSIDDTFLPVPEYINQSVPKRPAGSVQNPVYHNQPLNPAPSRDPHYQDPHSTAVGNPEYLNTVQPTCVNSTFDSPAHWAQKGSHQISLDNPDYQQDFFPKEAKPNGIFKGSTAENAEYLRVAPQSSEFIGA

Turning to `C=CC(=O)Nc1cc(Nc2ncnc(N3CC(C)(C)c4nc(C)c(C)cc43)n2)c(OC(C)C)cc1N(C)CCN(C)C` [Example 44, N-(2-((2-(dimethylamino)ethyl) (methyl)amino)-4-isopropoxy-5-((4-(3,3,5,6-tetramethyl-2,3-dihydro-1H-pyrrolo[3,2-b]pyridin-1-yl)-1,3,5-triazin-2-yl)amino)phenyl)acrylamide], in the assay on A431 (EGFR-WT), the IC50 turned out to be 108 nM. Also, the GI50 came to 35 nM in assay [1] and 20.1 nM in assay [2].
`C=CC(=O)Nc1cc(Nc2nccc(N3CC(C)(C)c4ncccc43)n2)c(OC(F)F)cc1N(C)CCN(C)C` [Example 45, N-(4-(difluoromethoxy)-5-((4-(3,3-dimethyl-2,3-dihydro-1H-pyrrolo [3,2-b]pyridin-1-yl)pyrimidin-2-yl)amino)-2-((2-(dimethylamino)ethyl)(methyl)amino)phenyl)acrylamide] showed an IC50 in the assay on A431 (EGFR-WT) of 1070 nM. The results for the GI50 in assay [1] and in assay [2] were 11.7 nM and 35.8 nM, respectively.
In the same order, the values of `C=CC(=O)Nc1cc(Nc2nccc(N3CC(C)(C)c4nc(C5CC5)ccc43)n2)c(OC(F)F)cc1N(C)CCN(C)C` [Example 46, N-(5-((4-(5-cyclopropyl-3,3-dimethyl-2,3-dihydro-1H-pyrrolo[3,2-b]pyridin-1-yl)pyrimidin-2-yl)amino)-4-(difluoromethoxy)-2-((2-(dimethylamino)ethyl)(methyl)amino)phenyl)acrylamide] are 402 nM, 21.6 nM and 22.6 nM.
The matching figures for `C=CC(=O)Nc1cc(Nc2nccc(N3CC(C)(C)c4nc(C)ccc43)n2)c(OC(F)F)cc1N(C)CCN(C)C` [Example 47, N-(4-(difluoromethoxy)-2-((2-(dimethylamino)ethyl)(methyl)amino)-5-((4-(3,3,5-trimethyl-2,3-dihydro-1H-pyrrolo[3,2-b]pyridin-1-yl)pyrimidin-2-yl)amino)phenyl) acrylamide]: 378 nM, 5.6 nM and 12.9 nM.
In the same order, the values of `C=CC(=O)Nc1cc(Nc2ncnc(N3CC(C)(C)c4nc(C)ccc43)n2)c(OC(C)C)nc1N(C)CCN(C)C` [Example 48, N-(2-((2-(dimethylamino)ethyl) (methyl)amino)-6-isopropoxy-5-((4-(3,3,5-trimethyl-2,3-dihydro-1H-pyrrolo[3,2-b]pyridin-1-yl)-1,3,5-triazin-2-yl)amino)pyridin-3-yl) acrylamide] are 66 nM, 9.1 nM and 23.7 nM.
`C=CC(=O)Nc1cc(Nc2nccc(N3CC(C)(C)c4nc(-c5cnn(C)c5)ccc43)n2)c(OC)cc1N(C)CCN(C)C` [Example 50, N-(5-((4-(3,3-dimethyl-5-(1-methyl-1H-pyrazol-4-yl)-2,3-dihydro-1H-pyrrolo[3,2-b]pyridin-1-yl)pyrimidin-2-yl)amino)-2-((2-(dimethylamino)ethyl)(methyl)amino)-4-methoxyphenyl)acrylamide]: the IC50 with A431 (EGFR-WT) was determined as 82.4 nM. Further, the results for the GI50 in assay [1] and in assay [2] were 32.1 nM and 14.6 nM, respectively.
For `C=CC(=O)Nc1cc(Nc2nccc(N3CC(C)(C)c4nc(-n5ccnc5)ccc43)n2)c(OC)cc1N(C)CCN(C)C` [Example 51, N-(5-((4-(5-(1H-imidazole-1-yl)-3,3-dimethyl-2,3-dihydro-1H-pyrrolo[3,2-b]pyridin-1-yl)pyrimidin-2-yl)amino)-2-((2-(dimethylamino)ethyl)(methyl)amino)-4-methoxyphenyl)acrylamide], the IC50 in the assay with A431 (EGFR-WT) is 620 nM. Further, the values for the GI50 in assay [1] and in assay [2] were 123 nM and 34.8 nM, respectively.
The matching figures for `C=CC(=O)Nc1cc(Nc2nccc(N3CC4(CCC4)c4nc(C)ccc43)n2)c(OC)cc1N(C)CCN(C)C` [Example 52, N-(2-((2-(dimethylamino)ethyl) (methyl)amino)-4-methoxy-5-((4-(5′-methylspiro[cyclobutane-1,3′-pyrrolo[3,2-b]pyridin]-1′(2′H)-yl)pyrimidin-2-yl)amino)phenyl) acrylamide]: 189 nM, 54.2 nM and 32.9 nM.
The matching figures for `C=CC(=O)Nc1cc(Nc2nccc(N3CC4(CCC4)c4nc(C)ccc43)n2)c(OC)nc1N(C)CCN(C)C` [Example 53, N-(2-((2-(dimethylamino)ethyl) (methyl)amino)-6-methoxy-5-((4-(5′-methylspiro[cyclobutane-1,3′-pyrrolo[3,2-b]pyridin]-1′(2′H)-yl)pyrimidin-2-yl)amino)pyridin-3-yl) acrylamide]: 96.9 nM, 26.3 nM and 14.8 nM.
The matching figures for `C#Cc1ccc2c(n1)C(C)(C)CN2c1ccnc(Nc2cc(NC(=O)C=C)c(N(C)CCN(C)C)cc2OC)n1` [Example 54, N-(2-((2-(dimethylamino)ethyl)(methyl)amino)-5-((4-(5-ethynyl-3,3-dimethyl-2,3-dihydro-1H-pyrrolo[3,2-b]pyridin-1-yl)pyrimidin-2-yl)amino)-4-methoxyphenyl)acrylamide]: 72.9 nM, 30.6 nM and 17.8 nM.
`C=CC(=O)Nc1cc(Nc2ncnc(N3CC4(CCC4)c4ncccc43)n2)c(OC)cc1N(C)CCN(C)C` [Example 55, N-(2-((2-(dimethylamino)ethyl) (methyl)amino)-4-methoxy-5-((4-(spiro[cyclobutane-1,3′-pyrrolo[3,2-b]pyridin]-1′(2′H)-yl)-1,3,5-triazin-2-yl)amino)phenyl)acrylamide] returned an IC50 in the assay on A431 (EGFR-WT) of 312 nM. The GI50 came out at 47 nM in assay [1] and 23.8 nM in assay [2].
In the same order, the values of `C=CC(=O)Nc1cc(Nc2nccc(N3CC4(CCC4)c4nc(C)ccc43)n2)c(OCC(F)(F)F)nc1N(C)CCN(C)C` [Example 56, N-(2-((2-(dimethylamino)ethyl) (methyl)amino)-5-((4-(5′-methylspiro [cyclobutane-1,3′-pyrrolo[3,2-b]pyridin]-1′(2′H)-yl)pyrimidin-2-yl)amino)-6-(2,2,2-trifluoroethoxy)pyridin-3-yl)acrylamide] are 348 nM, 35.4 nM and 12 nM.
Consider `C=CC(=O)Nc1cc(Nc2nccc(N3CC4(CCC4)c4ncccc43)n2)c(OCC(F)(F)F)nc1N(C)CCN(C)C` [Example 57, N-(2-((2-(dimethylamino)ethyl) (methyl)amino)-5-((4-(spiro[cyclo-butane-1,3′-pyrrolo[3,2-b]pyridin]-1′(2′H)-yl)pyrimidin-2-yl)amino)-6-(2,2,2-trifluoroethoxy)pyridin-3-yl)acrylamide], for which the IC50 in the assay with A431 (EGFR-WT) was 673 nM. Moreover, the results for the GI50 in assay [1] and in assay [2] were 79.7 nM and 32.7 nM, respectively.
The matching figures for `C=CC(=O)Nc1cc(Nc2nccc(N3CC(C)(C)c4nc(-n5cnc(C)c5)ccc43)n2)c(OC)cc1N(C)CCN(C)C` [Example 60, N-(5-((4-(3,3-dimethyl-5-(4-methyl-1H-imidazole-1-yl)-2,3-dihydro-1H-pyrrolo[3,2-b]pyridin-1-yl)pyrimidin-2-yl)amino)-2-((2-(dimethylamino)ethyl)(methyl)amino)-4-methoxyphenyl)acrylamide]: 747 nM, 110 nM and 34.5 nM.
